Measurements: PMC7833600 (The Journal of Biological Chemistry, 2021)
Non-standard residues stand in square brackets, D forms with d. Residues, ends and D or L forms follow the SMILES beside them. No end group written: not given here. *: point of attachment. Dnp = O=[N+]([O-])c1ccc(*)c([N+](=O)[O-])c1; Sta = CC(C)C[C@H](N)[C@@H](O)CC(=O)O; Mca = COc1ccc2c(CC(=O)*)cc(=O)oc2c1; Isovaleryl = CC(C)CC(=O)*

Experiments:
[1] = biological target: T1, human ACE2 (Homo sapiens, UniProt Q9BYF1); format: biochemical
[2] = biological target: T1, human ACE2; test: biochemical; details: IC50 for Competitive substrates, 1 h, 26 °C
[3] = biological target: T1, human ACE2; format: biochemical; remark: listed apart in the source
[4] = system: ACE2; details: cited from earlier work

T1 sequence (Q9BYF1 18-740 limits assumed): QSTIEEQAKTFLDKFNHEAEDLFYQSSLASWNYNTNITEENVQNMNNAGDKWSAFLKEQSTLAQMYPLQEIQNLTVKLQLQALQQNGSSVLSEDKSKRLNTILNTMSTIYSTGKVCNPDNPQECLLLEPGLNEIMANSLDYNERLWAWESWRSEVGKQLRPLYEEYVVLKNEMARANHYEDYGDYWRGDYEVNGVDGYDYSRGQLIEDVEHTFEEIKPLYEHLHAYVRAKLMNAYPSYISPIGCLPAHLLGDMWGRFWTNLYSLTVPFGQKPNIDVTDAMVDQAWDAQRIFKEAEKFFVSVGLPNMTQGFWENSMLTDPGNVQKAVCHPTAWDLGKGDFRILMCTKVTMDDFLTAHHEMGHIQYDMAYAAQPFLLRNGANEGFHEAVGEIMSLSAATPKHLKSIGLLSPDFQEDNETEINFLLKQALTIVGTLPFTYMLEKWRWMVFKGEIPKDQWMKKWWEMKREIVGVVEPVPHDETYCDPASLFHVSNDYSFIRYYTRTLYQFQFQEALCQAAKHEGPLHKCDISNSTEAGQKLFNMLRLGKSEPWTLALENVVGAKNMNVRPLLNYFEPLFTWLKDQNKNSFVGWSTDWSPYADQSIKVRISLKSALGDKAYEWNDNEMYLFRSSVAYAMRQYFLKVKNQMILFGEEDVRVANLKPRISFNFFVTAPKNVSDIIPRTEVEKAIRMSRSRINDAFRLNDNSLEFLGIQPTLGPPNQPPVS

NCCc1ccc(S(=O)(=O)F)cc1 [AEBSF]
effect on ACE2 activity [1]: no effects

CC(C)C[C@H](N[C@@H](Cc1cncn1Cc1cc(Cl)cc(Cl)c1)C(=O)O)C(=O)O [MLN-4760]
effect on ACE2 activity [1]: completely blocked | effect on the spike / RBD mediated enhancement of ACE2 cleavage [1]: abolished

N=C(N)NCCC[C@H](N)C(=O)N1CCC[C@H]1C(=O)N1CCC[C@H]1C(=O)NCC(=O)N[C@@H](Cc1ccccc1)C(=O)N[C@@H](CO)C(=O)N1CCC[C@H]1C(=O)N[C@@H](Cc1ccccc1)C(=O)O [desBK, des-Arg^9-bradykinin]
IC50 [2]: 1430 ± 655 µM

CC(=O)N[C@@H](CC(C)C)C(=O)N[C@@H](CC(C)C)C(=O)N[C@H](C=O)CCCNC(=N)N [leupeptin]
effect on ACE2 activity [1]: no effects

CC(C)CC(=O)N[C@H](C(=O)N[C@H](C(=O)N[C@@H](CC(C)C)[C@@H](O)CC(=O)N[C@@H](C)C(=O)N[C@@H](CC(C)C)[C@@H](O)CC(=O)O)C(C)C)C(C)C [pepstatin A] (Isovaleryl-VV[Sta]A[Sta]-OH)
effect on ACE2 activity [1]: no effects

Mca-RPPGFSAFK(Dnp)-OH
amount of substrate cleaved by ACE2 [3]: ~0.05 µM

Mca-YVADAPK(Dnp)-OH
amount of substrate cleaved by ACE2 [3]: ~0.5 µM

QRPRLSHKGPMP↓F [Apelin-13]
k cat/Km of ACE2 cleavage [4]: > 1e+06 M⁻¹ s⁻¹

RPPGFSPFR [BK, bradykinin]
IC50 [2]: 680 ± 87 µM

YGGFLRRIRPKL↓K [dynorphin A 1-13]
k cat/Km of ACE2 cleavage [4]: > 1e+06 M⁻¹ s⁻¹
